Values quoted from earlier work, collected in US12565499B2, “Compounds and methods” (INTRA-CELLULAR THERAPIES, INC., priority 2012, dated 2026).

Tested on: mice
Conditions: chronic administration; Berton et al., Science (2006) 311:864-868

CNCCC(Oc1ccc(C(F)(F)F)cc1)c1ccccc1 (stereo not shown) [fluoxetine]
reversal of isolation behavior in the social defeat/resident intruder model: reversed
